Measured values: patent US7996068B2, “Surgical method and apparatus for identification of fluorescence” (The Board of Trustees of the Leland Stanford Junior …, priority 2007, dated 2011)

Columns and labels:
[1] = human, cited from earlier work
[2] = human, in vivo
Source text: In some embodiments, intravenous fluorescein can be used as the fluorescent agent.

- concentration of fluorescein in urine [2]: about 0.1 mg/ml
- concentration of fluorescein in urine relative to concentration in the blood [2]: about 5 ×
- rate of drug excreted into the ureters [2]: 0.05 mg/min
SMILES: O=C1OC2(c3ccc(O)cc3Oc3cc(O)ccc32)c2ccccc21 [fluorescein]
- fraction of dose metabolized ([1]; 14 mg/kg dose, IV, within 1 hour of administration): 80%
- time the urine remains slightly fluorescent post dose ([1]; post dose): 24 to 36 h
- volume of distribution [1]: 0.5 L/kg
